# Legend:
# K562 [1] = assay: Growth inhibition of human K562 cells assessed as cell growth at 1 uM incubated for 48 hrs by sulforhodamine B assay relative to control; assay type: functional; details: K562, 48 h, read-out: Activity
# MDA-MB-435 [2] = assay: Growth inhibition of human MDA-MB-435 cells assessed as cell growth at 0.01 uM incubated for 48 hrs by sulforhodamine B assay relative to control; assay type: functional; details: MDA-MB-435, 48 h, read-out: Activity
# SF-295 = assay: Growth inhibition of human SF295 cells assessed as cell growth at 0.1 uM incubated for 48 hrs by sulforhodamine B assay relative to control; assay type: functional; details: SF-295, 48 h, read-out: Activity
# HCC 2998 [3] = assay: Growth inhibition of human HCC2998 cells assessed as cell growth at 100 uM incubated for 48 hrs by sulforhodamine B assay relative to control; assay type: functional; details: HCC 2998, 48 h, read-out: Activity
# HT-29 [4] = assay: Growth inhibition of human HT-29 cells incubated for 48 hrs by sulforhodamine B assay; assay type: functional, cell-based; details: HT-29, 48 h
# NCI-H522 [5] = assay: Growth inhibition of human NCI-H522 cells assessed as cell growth at 10 uM incubated for 48 hrs by sulforhodamine B assay relative to control; assay type: functional; details: NCI-H522, 48 h, read-out: Activity
# MOLT-4 [6] = assay: Growth inhibition of human MOLT4 cells assessed as cell growth at 100 uM incubated for 48 hrs by sulforhodamine B assay relative to control; assay type: functional; details: MOLT-4, 48 h, read-out: Activity
# MOLT-4 [7] = assay: Growth inhibition of human MOLT4 cells assessed as cell growth at 0.1 uM incubated for 48 hrs by sulforhodamine B assay relative to control; assay type: functional; details: MOLT-4, 48 h, read-out: Activity
# KM12 = assay: Growth inhibition of human KM12 cells assessed as cell growth at 1 uM incubated for 48 hrs by sulforhodamine B assay relative to control; assay type: functional; details: KM12, 48 h, read-out: Activity
# OVCAR-3 = assay: Growth inhibition of human OVCAR3 cells incubated for 48 hrs by sulforhodamine B assay; assay type: functional, cell-based; details: OVCAR-3, 48 h
# SR = assay: Growth inhibition of human SR cells assessed as cell growth at 0.1 uM incubated for 48 hrs by sulforhodamine B assay relative to control; assay type: functional; details: read-out: Activity
# K562 [8] = assay: Growth inhibition of human K562 cells assessed as cell growth at 0.1 uM incubated for 48 hrs by sulforhodamine B assay relative to control; assay type: functional; details: K562, 48 h, read-out: Activity
# HL-60(TB) [9] = assay: Growth inhibition of human HL-60(TB) cells assessed as cell growth at 0.01 uM incubated for 48 hrs by sulforhodamine B assay relative to control; assay type: functional; details: HL-60, 48 h, read-out: Activity
# HL-60(TB) [10] = assay: Growth inhibition of human HL-60(TB) cells assessed as cell growth at 100 uM incubated for 48 hrs by sulforhodamine B assay relative to control; assay type: functional; details: HL-60, 48 h, read-out: Activity
# DU-145 = assay: Growth inhibition of human DU145 cells assessed as cell growth at 1 uM incubated for 48 hrs by sulforhodamine B assay relative to control; assay type: functional; details: DU-145, 48 h, read-out: Activity
# HCT-15 = assay: Growth inhibition of human HCT15 cells assessed as cell growth at 0.1 uM incubated for 48 hrs by sulforhodamine B assay relative to control; assay type: functional; details: HCT-15, 48 h, read-out: Activity
# HCC 2998 [11] = assay: Growth inhibition of human HCC2998 cells assessed as cell growth at 0.1 uM incubated for 48 hrs by sulforhodamine B assay relative to control; assay type: functional; details: HCC 2998, 48 h, read-out: Activity
# A498 = assay: Growth inhibition of human A498 cells incubated for 48 hrs by sulforhodamine B assay; assay type: functional, cell-based; details: A498, 48 h
# HOP-62 [12] = assay: Growth inhibition of human HOP62 cells assessed as cell growth at 0.01 uM incubated for 48 hrs by sulforhodamine B assay relative to control; assay type: functional; details: HOP-62, 48 h, read-out: Activity
# SK-MEL-2 = assay: Growth inhibition of human SK-MEL-2 cells incubated for 48 hrs by sulforhodamine B assay; assay type: functional, cell-based; details: SK-MEL-2, 48 h
# MDA-MB-468 [13] = assay: Growth inhibition of human MDA-MB-468 cells assessed as cell growth at 100 uM incubated for 48 hrs by sulforhodamine B assay relative to control; assay type: functional; details: MDA-MB-468, 48 h, read-out: Activity
# OVCAR-8 = assay: Growth inhibition of human OVCAR8 cells assessed as cell growth at 0.01 uM incubated for 48 hrs by sulforhodamine B assay relative to control; assay type: functional; details: OVCAR-8, 48 h, read-out: Activity
# K562 [14] = assay: Growth inhibition of human K562 cells assessed as cell growth at 100 uM incubated for 48 hrs by sulforhodamine B assay relative to control; assay type: functional; details: K562, 48 h, read-out: Activity
# HT-29 [15] = assay: Growth inhibition of human HT-29 cells assessed as cell growth at 100 uM incubated for 48 hrs by sulforhodamine B assay relative to control; assay type: functional; details: HT-29, 48 h, read-out: Activity
# HOP-62 [16] = assay: Growth inhibition of human HOP62 cells assessed as cell growth at 1 uM incubated for 48 hrs by sulforhodamine B assay relative to control; assay type: functional; details: HOP-62, 48 h, read-out: Activity
# M14 = assay: Growth inhibition of human M14 cells incubated for 48 hrs by sulforhodamine B assay; assay type: functional, cell-based; details: M14, 48 h
# UO-31 = assay: Growth inhibition of human UO31 cells assessed as cell growth at 1 uM incubated for 48 hrs by sulforhodamine B assay relative to control; assay type: functional; details: UO-31, 48 h, read-out: Activity
# MDA-MB-435 [17] = assay: Growth inhibition of human MDA-MB-435 cells assessed as cell growth at 100 uM incubated for 48 hrs by sulforhodamine B assay relative to control; assay type: functional; details: MDA-MB-435, 48 h, read-out: Activity
# NCI-H522 [18] = assay: Growth inhibition of human NCI-H522 cells incubated for 48 hrs by sulforhodamine B assay; assay type: functional, cell-based; details: NCI-H522, 48 h
# MDA-MB-468 [19] = assay: Growth inhibition of human MDA-MB-468 cells assessed as cell growth at 0.1 uM incubated for 48 hrs by sulforhodamine B assay relative to control; assay type: functional; details: MDA-MB-468, 48 h, read-out: Activity
# [20] = read-out: LC50 (the source's name)
# [21] = read-out: pLC50 (the source's name) (converted)
structure (smiles),measurement,setting,value
COc1cc(Cl)cc(-c2nn(-c3cccc(NC(=O)c4ccc(N5CCOCC5)c(C(F)(F)F)c4)c3)cc2-c2ccncc2)c1,growth at 1 µM,K562 [1],91%
same,growth at 0.01 µM,MDA-MB-435 [2],97%
same,growth at 0.1 µM,SF-295,94%
same,growth at 100 µM,HCC 2998 [3],-5%
same,GI50,HT-29 [4]; read-out: GI50,4 µM
same,CC50,HT-29 [4]; [20],> 100 µM
same,TGI,HT-29 [4]; read-out: TGI,38 µM
same,GI50,HT-29 [4]; read-out: pGI50 (converted),4.07 µM
same,CC50,HT-29 [4]; [21],> 100 µM
same,TGI,HT-29 [4]; read-out: pTGI (converted),38 µM
same,growth at 10 µM,NCI-H522 [5],52.7%
same,growth at 100 µM,MOLT-4 [6],29%
same,growth at 0.1 µM,MOLT-4 [7],90%
same,growth at 1 µM,KM12,52%
same,IC50,OVCAR-3,53.1 µM
same,GI50,OVCAR-3; read-out: GI50,5.31 µM
same,CC50,OVCAR-3; [20],> 100 µM
same,TGI,OVCAR-3; read-out: TGI,> 100 µM
same,GI50,OVCAR-3; read-out: pGI50 (converted),53.7 µM
same,CC50,OVCAR-3; [21],> 100 µM
same,TGI,OVCAR-3; read-out: pTGI (converted),> 100 µM
same,growth at 0.1 µM,SR,91%
same,growth at 0.1 µM,K562 [8],95%
same,growth at 0.01 µM,HL-60(TB) [9],94%
same,growth at 100 µM,HL-60(TB) [10],-15%
same,growth at 1 µM,DU-145,105%
same,growth at 0.1 µM,HCT-15,85%
same,growth at 0.1 µM,HCC 2998 [11],94%
same,GI50,A498; read-out: GI50,1.52 µM
same,CC50,A498; [20],> 100 µM
same,TGI,A498; read-out: TGI,> 100 µM
same,GI50,A498; read-out: pGI50 (converted),16.2 µM
same,CC50,A498; [21],> 100 µM
same,TGI,A498; read-out: pTGI (converted),> 100 µM
same,growth at 0.01 µM,HOP-62 [12],104%
same,GI50,SK-MEL-2; read-out: GI50,2.11 µM
same,CC50,SK-MEL-2; [20],> 100 µM
same,TGI,SK-MEL-2; read-out: TGI,> 100 µM
same,GI50,SK-MEL-2; read-out: pGI50 (converted),26.3 µM
same,CC50,SK-MEL-2; [21],> 100 µM
same,TGI,SK-MEL-2; read-out: pTGI (converted),> 100 µM
same,growth at 100 µM,MDA-MB-468 [13],17%
same,growth at 0.01 µM,OVCAR-8,99%
same,growth at 100 µM,K562 [14],2%
same,growth at 100 µM,HT-29 [15],-17%
same,growth at 1 µM,HOP-62 [16],107%
same,GI50,M14; read-out: GI50,7.93 µM
same,CC50,M14; [20],> 100 µM
same,TGI,M14; read-out: TGI,> 100 µM
same,GI50,M14; read-out: pGI50 (converted),7.94 µM
same,CC50,M14; [21],> 100 µM
same,TGI,M14; read-out: pTGI (converted),> 100 µM
same,growth at 1 µM,UO-31,52%
same,growth at 100 µM,MDA-MB-435 [17],42%
same,GI50,NCI-H522 [18]; read-out: GI50,4.72 µM
same,CC50,NCI-H522 [18]; [20],> 100 µM
same,TGI,NCI-H522 [18]; read-out: TGI,> 100 µM
same,GI50,NCI-H522 [18]; read-out: pGI50 (converted),4.68 µM
same,CC50,NCI-H522 [18]; [21],> 100 µM
same,TGI,NCI-H522 [18]; read-out: pTGI (converted),> 100 µM
same,growth at 0.1 µM,MDA-MB-468 [19],92%
